In the supplement of paper PMC10883282:
Structures can show the parent of a compound that is named as a salt. ± gives the standard deviation of the averaged measurements.

Test system: SW1353
Experiment: relative viability vs DMSO control (72 h) (fraction); higher = more viable cells
Procedure, shortened: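 Sarcoma cell lines went into 384-well plates at densities chosen to reach 80–90% confluence. After 24 h, each well received 2.5 µl of serially diluted compound, with source plates running from 10 mM to 0.0002 mM, and the plates were kept 72 h at 37 °C, 5% CO2, alongside 0.1% DMSO vehicle and a 5 µM positive control. Relative viability was derived from ATPLite readings as percent growth and averaged over up to triplicate wells. The data were then rescaled so that 1 stands for full and 0 for none.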

Structure (SMILES)	relative viability (2 pM)	relative viability (5 pM)	relative viability (15 pM)	relative viability (50 pM)	relative viability (0.00014 µM)	relative viability (0.00041 µM)	relative viability (0.0012 µM)	relative viability (0.0037 µM)	relative viability (0.011 µM)	relative viability (200 fM)	relative viability (600 fM)	relative viability (0.00017 µM)	relative viability (0.00051 µM)	relative viability (0.00152 µM)	relative viability (0.00457 µM)	relative viability (0.01372 µM)	relative viability (0.04115 µM)	relative viability (0.1235 µM)	relative viability (0.3704 µM)	relative viability (1.111 µM)	relative viability (3.333 µM)	relative viability (10 µM)
COc1cc2c(cc1O)CCN[C@]21CS[C@@H]2c3c(OC(C)=O)c(C)c4c(c3[C@H](COC1=O)N1[C@@H]2[C@H]2c3c(cc(C)c(OC)c3O)C[C@@H]([C@@H]1O)N2C)OCO4 [Trabectedin]	1.09 ± 0.017	1.09 ± 0.027	1.06 ± 0.03	1.04 ± 0.013	1.04 ± 0.03	0.92 ± 0.018	0.0356 ± 0.003	0.229 ± 0.0077	0.186 ± 0.015	1.1 ± 0.027	1.1 ± 0.012											
CN1CCN(c2ccc3nc(-c4c(N)c5c(F)cccc5[nH]c4=O)[nH]c3c2)CC1 [Dovitinib]												1.08 ± 0.036	1.09 ± 0.015	1.04 ± 0.04	1.07 ± 0.019	1.06 ± 0.014	1.01 ± 0.03	1.01 ± 0.048	0.959 ± 0.036	0.749 ± 0.017	0.53 ± 0.043	0.06 ± 0.0053
C[C@@H]1COCCN1c1cc(-c2ccnn2C)c2ccnc(-c3ccn[nH]3)c2n1												0.988 ± 0.026	0.94 ± 0.015	0.974 ± 0.035	0.978 ± 0.065	0.933 ± 0.059	0.872 ± 0.028	0.769 ± 0.026	0.624 ± 0.027	0.507 ± 0.0081	0.41 ± 0.005	0.392 ± 0.014
Cn1cc(-c2cc3c(N4CCN(c5ncc([C@@](C)(N)c6ccc(F)cc6)cn5)CC4)ncnn3c2)cn1 [Avapritinib]												0.96 ± 0.072	0.905 ± 0.043	0.894 ± 0.057	0.92 ± 0.012	0.894 ± 0.04	0.883 ± 0.051	0.871 ± 0.036	0.819 ± 0.04	0.819 ± 0.02	0.776 ± 0.03	0.715 ± 0.042
C[C@]1(O)C[C@@H](c2nc(-c3ccc4ccc(-c5ccccc5)nc4c3)c3c(N)nccn32)C1 [Linsitinib]												1.03 ± 0.017	1 ± 0.024	1.03 ± 0.03	0.977 ± 0.024	1.03 ± 0.017	1.01 ± 0.014	0.978 ± 0.041	0.967 ± 0.029	0.9847 ± 0.0087	0.949 ± 0.05	0.866 ± 0.024
Cc1nc(NC(=O)N2CCC[C@H]2C(N)=O)sc1-c1ccnc(C(C)(C)C(F)(F)F)c1 [Alpelisib]												1.02 ± 0.034	1 ± 0.024	1.01 ± 0.011	0.973 ± 0.028	0.977 ± 0.072	0.902 ± 0.027	0.9309 ± 0.0035	0.903 ± 0.039	0.819 ± 0.061	0.731 ± 0.024	0.594 ± 0.037
COc1cccc2c1C(=O)c1c(O)c3c(c(O)c1C2=O)C[C@@](O)(C(=O)CO)C[C@@H]3O[C@H]1C[C@H](N)[C@H](O)[C@H](C)O1 [Doxorubicin Hydrochloride]												0.948 ± 0.043	0.971 ± 0.029	0.958 ± 0.022	0.949 ± 0.013	0.882 ± 0.043	0.81 ± 0.013	0.661 ± 0.029	0.376 ± 0.017	0.162 ± 0.0035	0.181 ± 0.011	0.115 ± 0.0047
CNC(=O)c1ccc(-c2cnc3ncc(Cc4ccc5ncccc5c4)n3n2)cc1F [Capmatinib]												0.958 ± 0.038	0.979 ± 0.033	0.973 ± 0.029	0.986 ± 0.063	0.974 ± 0.019	0.964 ± 0.049	1.01 ± 0.036	0.98 ± 0.044	1.05 ± 0.025	1.07 ± 0.011	1.03 ± 0.018
Cc1ccc(NC(=O)c2ccc(CN3CCN(C)CC3)cc2)cc1Nc1nc(-c2cccnc2)cs1 [Masitinib]												1.03 ± 0.017	0.998 ± 0.012	0.986 ± 0.023	0.9886 ± 0.0079	0.989 ± 0.014	1.018 ± 0.0045	0.925 ± 0.006	0.86 ± 0.049	0.755 ± 0.047	0.478 ± 0.026	0.032 ± 0.0052
C[C@@H](c1ccc2nccn2c1)n1nnc2ncc(-c3cnn(C)c3)nc21 [Volitinib]												1.01 ± 0.033	1.01 ± 0.011	0.998 ± 0.028	1.02 ± 0.019	1.02 ± 0.044	1 ± 0.048	1.01 ± 0.045	0.976 ± 0.026	1.03 ± 0.016	0.987 ± 0.035	1.02 ± 0.023
CC(C)(C)c1cc(NC(=O)Nc2ccc(-c3cn4c(n3)sc3cc(OCCN5CCOCC5)ccc34)cc2)no1 [Quizartinib]												1.02 ± 0.03	1.02 ± 0.047	1.02 ± 0.057	1.03 ± 0.047	1.01 ± 0.059	1.03 ± 0.043	1.02 ± 0.046	1.01 ± 0.031	0.965 ± 0.044	0.874 ± 0.02	0.981 ± 0.035
CC(C)N1CCN(Cc2cnc(-c3cc(-c4cccc5[nH]ccc45)cc4[nH]ncc34)o2)CC1 [Nemiralisib]												1.07 ± 0.033	0.997 ± 0.044	0.992 ± 0.023	0.99 ± 0.032	0.983 ± 0.02	0.965 ± 0.043	0.948 ± 0.04	0.914 ± 0.025	0.85 ± 0.053	0.721 ± 0.044	0.59 ± 0.067
C=CC(=O)N1CCC[C@@H](n2nc(-c3ccc(Oc4ccccc4)cc3)c3c(N)ncnc32)C1 [Ibrutinib]												1.03 ± 0.041	1.04 ± 0.028	1 ± 0.032	1.013 ± 0.0014	0.947 ± 0.03	0.945 ± 0.011	0.854 ± 0.05	0.821 ± 0.012	0.746 ± 0.043	0.647 ± 0.014	0.412 ± 0.021
CN1CCC(COc2cnc(-c3cccc(Cn4nc(-c5cccc(C#N)c5)ccc4=O)c3)nc2)CC1 [Tepotinib]												1.025 ± 0.0083	1.02 ± 0.015	1.01 ± 0.021	1.01 ± 0.018	0.984 ± 0.028	0.988 ± 0.035	0.951 ± 0.029	0.976 ± 0.039	0.93 ± 0.046	0.977 ± 0.027	0.573 ± 0.17
C[C@@H]1CCN(C(=O)CC#N)C[C@@H]1N(C)c1ncnc2[nH]ccc12 [Tofacitinib]												1.08 ± 0.025	1.07 ± 0.06	1.03 ± 0.036	1.04 ± 0.027	0.986 ± 0.039	1.02 ± 0.031	0.989 ± 0.033	1.01 ± 0.034	0.998 ± 0.054	1 ± 0.022	0.884 ± 0.035
Cc1cc(Nc2ncnc3ccc(NC4=NC(C)(C)CO4)cc23)ccc1Oc1ccn2ncnc2c1 [Tucatinib]												1.06 ± 0.053	1.04 ± 0.03	1.06 ± 0.03	1.04 ± 0.043	0.989 ± 0.045	0.931 ± 0.026	0.936 ± 0.031	0.895 ± 0.026	0.855 ± 0.053	0.897 ± 0.064	0.936 ± 0.0098
O=C(Nc1cnn2ccc(N3CCC[C@@H]3c3cc(F)ccc3F)nc12)N1CC[C@H](O)C1 [Larotrectinib]												1.07 ± 0.043	1.07 ± 0.027	1 ± 0.033	1.01 ± 0.057	1.03 ± 0.034	0.954 ± 0.026	0.99 ± 0.025	0.9488 ± 0.0041	0.984 ± 0.053	0.979 ± 0.025	0.921 ± 0.047
C=CC(=O)N1CCC([C@@H]2CCNc3c(C(N)=O)c(-c4ccc(Oc5ccccc5)cc4)nn32)CC1 [Zanubrutinib]												1.07 ± 0.066	1.05 ± 0.048	1.04 ± 0.034	1.03 ± 0.038	1.03 ± 0.044	1.03 ± 0.044	1.02 ± 0.029	0.965 ± 0.034	0.917 ± 0.057	0.828 ± 0.041	0.657 ± 0.023
CO[C@H]1C[C@@H]2CC[C@@H](C)[C@@](O)(O2)C(=O)C(=O)N2CCCC[C@H]2C(=O)O[C@H]([C@H](C)C[C@@H]2CC[C@@H](OP(C)(C)=O)[C@H](OC)C2)CC(=O)[C@H](C)/C=C(\C)[C@@H](O)[C@@H](OC)C(=O)[C@H](C)C[C@H](C)/C=C/C=C/C=C/1C [Ridaforolimus]												0.961 ± 0.028	0.905 ± 0.041	0.805 ± 0.012	0.771 ± 0.011	0.747 ± 0.029	0.742 ± 0.033	0.723 ± 0.016	0.72 ± 0.035	0.702 ± 0.012	0.707 ± 0.012	0.682 ± 0.023
